Results from patent US10987357B2, “Aerosolized fluoroquinolones and uses thereof” (Horizon Orphan, LLC, priority 2005, dated 2021).
In brackets after ≈: the same amount, converted by molar mass. Read-outs that look alike come from different tables or passages of the source.

Columns and labels:
[1] = 28-day GLP inhalation toxicology study
PAM1582 [2] = experiment: Levofloxacin MIC of hollow fiber test strain; type: cell-based; conditions: Pseudomonas aeruginosa, read-out: Levofloxacin MIC
Text: Pseudomonas aeruginosa PAM1032 and PAM1582. […]

[3] = Tolerability of aerosol levofloxacin in a healthy human subject
[4] = in vivo
Method: In the second test, the tolerability and taste of a small aerosol sample from a 0.5 ml aliquot of the test formulation was determined in a single healthy human volunteer, following nebulization in a PARI eFlow nebulizer (Table 12).
The tolerability and taste of the drug during a very brief administration period and for a period of 10 minutes post administration were monitored. Tolerability parameters were of the following types: (i) cough, cough sensation, or sneezing (ii) irritation, burning or tightness of throat, (ii) irritation or runniness in nasal passages or eyes, (iii) irritation, burning or tightness of the lungs or shortness of breadth, and (iv) dizziness, headache, nausea or other systemic effects.

physchem [5] = experiment: physchem
Method: This solution was titrated with 1 N HCl. Measured aliquots of HCl were added and the pH recorded after each addition. Titration was continued till a pH of 1.
Vep volume of titrant added till the equivalence point; [OH^−]=hydroxide ion concentration=Kw/[…]; [H^+]=hydronium ion concentration=10^−pH.

[6] = 4 day non-GLP ascending dose inhalation toxicology study; conditions: 24 hours after the last dose
PAM1020 [7] = experiment: microbe, parasite or virus in culture; type: cell-based, P. aeruginosa; conditions: Pseudomonas aeruginosa, read-out: Levofloxacin MIC
Text: (§1) . Those were chosen based on what is known about conditions and growth of PA in a cystic fibrosis (CF) lung. Four isogenic strains of P. aeruginosa were used for these experiments (Table 2).

[8] = system: P. aeruginosa strain PAM 1723; experiment: Mouse lung infection efficacy model; conditions: Pseudomonas aeruginosa, PAM1723, in Mus musculus
Method: The inoculum is adjusted to ca. 5×10^6 CFU/ml by correlation of absorbance at 600 nm with predetermined plate counts. […] On day 5, mice are infected by an intratracheal instillation of 0.05 ml of inoculum while under isoflurane anesthesia (5% isoflurane in oxygen running at 4 L/min). […] Mice are sacrificed 1 and 4 hours after treatment, their lungs removed, homogenized and plated to determine colony counts.

[9] = in vivo; cited from earlier work
PAM1032 [10] = type: cell-based, P. aeruginosa; conditions: PAM1032, genotype nalB
Text: as §1

PAM1032 [11] = experiment: In vitro pharmacodynamic (hollow fiber) model of infection; type: cell-based, Pseudomonas aeruginosa; conditions: for reduction in bacterial counts: half-life 10 minutes
Method: (§2) The in vitro pharmacodynamic model consists of a central (analogous “serum” compartment) and peripheral (“extravascular”) compartment. The peripheral compartments consist of artificial capillary units (Unisyn, Hopkinton, Mass.) arranged in series with the central compartment. Each capillary unit has a bundle of small semi-permeable fibers with a molecular size retention of ca. 10,000 MW to allow passage of nutrients but not bacteria. The entire system is set up in a dry heat incubator adjusted to 37° C.
(§3) Both the central and peripheral compartments were filled with Mueller-Hinton broth. Each peripheral compartment (capillary unit and tubing) contained ca. 23 ml of growth medium.
(§4) Bacteria were introduced into the peripheral chamber of the model and allowed to grow for 2 hours prior to the first “dose” of drug. Drug doses were administered into the central compartment and pumped to peripheral chambers by a peristaltic pump. Concentrations in the model declined according to first order elimination (half-life) by dilution of the central compartment with drug free medium introduced by an additional peristaltic pump adjusted to the desired clearance.
(§5) Samples (0.3 ml) were collected from peripheral compartments at various intervals for determination of drug and bacterial concentrations. Samples were collected from the peripheral compartments and assayed for drug concentrations by HPLC.
(§6) Of the resulting dilution, 2.3 ml was injected into each peripheral chamber of the hollow-fiber bioreactors (Unisyn, Hopkinton, Mass.).

[12] = Rat pharmacokinetic model (IV vs microspray aerosol, intratracheal); type: in vivo, rats; conditions: 10 mg/kg; for AUC: epithelial lining fluid (ELF)
Method: […] Blood samples are taken at various times over 3 hours to determine the plasma pharmacokinetic parameters. […] The plasma and tissue concentrations are determined by an HPLC method and the data are then fit using WinNonlin.

[13] = system: colony biofilms of PAM1032; type: cell-based, P. aeruginosa; conditions: 10 minutes of exposure
Method: The viable cell numbers were enumerated by plating serially diluted samples (in duplicates) on MHB plates by the drop (10 ul) plating method.

PAM1032 [14] = type: cell-based, P. aeruginosa
Method: Overnight cultures were grown aerobically overnight in Mueller-Hinton Broth and next diluted 1:10000 in MEM which filled growth flasks to the very top. Cultures were grown without shaking to OD˜0.3 at 37° C. […] Other than decreased aeration, antibiotic concentration, time of exposure, and determination of viable cell counts were the same as in Experiments 1 and 2.

PAM1582 [15] = type: cell-based, Pseudomonas aeruginosa; conditions: for reduction in bacterial counts: half-life 10 minutes
Method: as §2, §3, §4, §5, §6

PAM1020 [16] = experiment: Time-kill, exponentially grown cells (Experiment 1); type: cell-based, P. aeruginosa; conditions: 64 ug/ml ([…] MIC), 10 minutes
Method: At appropriate times, 1 ml of each exposure culture was centrifuged for 2 minutes, the pellet was washed twice with 1 ml of drug-free MHB, and re-suspended in 1 ml of MHB. The viable cell numbers were enumerated by plating serially diluted samples (in duplicates) on MHB plates by the drop (10 ul) plating method. The limit of detection was 100 CFU/ml. Killing is reported as the log reduction calculated relative to cell count at the time of initiation of antibiotic exposure. Relative antibiotic concentrations (relative to MIC of the corresponding strains) are used.

physchem [17] = experiment: physchem; remark: listed apart in the source
Text: The buffers used were HCL (pH 1,2), acetate (pH 4,5), phosphate (pH 6,7,8) and borate (9,10).

[18] = 4 day GLP inhalation toxicology study

C[C@H]1COc2c(N3CCN(C)CC3)c(F)cc3c(=O)c(C(=O)O)cn1c23 [Levofloxacin, levofloxacin]
survival ([1]; 28 day treatment period): all animals survived | necropsy ([1]; after the last dose): dose related squamous cell hyperplasia of the larynx | MIC (PAM1582 [2]): 32 µg/mL | tolerability of hypotonic solutions for inhalation ([3]; concentrations greater than 10 mg/ml): poorly tolerated | overall tolerability ([3]; first test): well tolerated | acute tolerability ([3]; second test: 4 ml of 18.75 mg/mL, Aerogen Small, estimated RDD 35 mg): very comparable to the first test | adverse effects in the throat, airway or lungs ([3]; third test: 4 mL of 18.75 mg/mL, PARI Large, estimated RDD ~55 mg): no adverse effects in the throat, airway or lungs | Aerosol Tolerability and Taste [4]: chemical taste, somewhat bitter, | acidic pKa (physchem [5]): ~1.6 | pKb (physchem [5]): 7.7 | pKa (physchem [5]; acidic pKa): < 2 | pKa (physchem [5]; pKa): 6.3 | pKa (physchem [5]; pKa of the basic site as stated in text): ~6.8 | necropsy [6]: did not show any findings | MIC (PAM1020 [7]): 0.25 µg/mL (≈ 0.692 µM) | log reduction at 25 mg/kg ([8]; 1 h, read-out: DeltaLOG CPU 1 hr, route IT, dose 25 mg/kg, 1 hr post-drug administration): 2.48 | log reduction at 25 mg/kg ([8]; 4 h, read-out: DeltaLOG CPU 4 hr, route IT, dose 25 mg/kg, 4 hr post-drug administration): 1.45 | log reduction at 25 mg/kg ([8]; ip, 1 h, read-out: DeltaLOG CPU 1 hr, route IP, dose 25 mg/kg, 1 hr post-drug administration): 1.4 | penetration into lung tissues [9]: penetrates well into lung tissues | Levofloxacin MIC (PAM1032 [10]): 1 µg/mL | Levofloxacin MIC (PAM1032 [10]; listed as levofloxacin): 1.0 µg/mL | time to maximum bactericidal effect (PAM1032 [11]; Cmax 600 ug/ml): 30 min | reduction in bacterial counts (PAM1032 [11]; Cmax 600 ug/ml): 5 log | time to maximum bactericidal effect (PAM1032 [11]; Cmax 1000 ug/ml): ≤ 10 min | reduction in bacterial counts (PAM1032 [11]; Cmax 1000 ug/ml): 5 log | bacterial reduction (PAM1032 [11]; Cmax of both 600 and 1000 ug/ml, strain with MIC of 1 ug/ml): ≤ 99.9999% | F, % from Lung vs. IV ([12]; IT): 86% | AUC ([12]; rat, inhaled or intranasal, IT): 12100 ng·h/mL | AUC ([12]; rat, iv): 10500 ng·h/mL | half-life ([12]; rat, in vivo, inhaled or intranasal, IT, read-out: Serum t1/2 (converted)): 24 min | AUC(0-inf) ([12]; rat, serum, inhaled or intranasal, IT): 3280 ng·h/mL | maximum observed bactericidal activity against biofilms [13]: 99% | stronger killing at longer exposure intervals (difference) (PAM1032 [14]): less than 1 log | bacterial reduction (PAM1582 [15]): up to 99.99% | reduction in bacterial counts (PAM1582 [15]; Cmax 600 ug/ml): 3 log | reduction in bacterial counts (PAM1582 [15]; Cmax 1000 ug/ml): 4 log | bacterial reduction (PAM1582 [15]; listed as levofloxacin): up to 99.999% | maximum killing, decrease in viable cell counts (PAM1020 [16]): 5.5 log | pKa (physchem [17]): 5.91 | survival ([18]; 4 day treatment period): all animals survived | necropsy ([18]; after the last dose): did not show any findings
